Reference: patent EP1368050B1, “VIRUS DERIVED ANTIMICROBIAL PEPTIDES” (priority 2001, dated 2008)
≈ marks a conversion by molar mass, not a printed value. Where two headings read alike, the source gives them in different places. Residues, ends and D or L forms follow the SMILES beside them. No end group written: not given here.

What was measured:
Conditions in all cases: 10 mM phosphate buffer, 99.9% killing
Staphylococcus aureus = assay: Bacterial lysis assay (broth dilution), minimal bactericidal concentration; assay type: cell-based
Description: (§1) The assays for growth inhibition of a microbial target can be used to derive a minimum bactericidal concentration (MBC) value for the peptide, i.e., the concentration of peptide required to kill 99.9% of the microbial sample being tested. This value is well known to those in the art as representative of the effectiveness of a particular antimicrobial agent (e.g., an antibiotic) against a particular organism or group of organisms. In assays to detect the MBC of a peptide, growth inhibition of a bacterial population also can be measured with reference to the number of colony forming units (cfu) after exposure to a peptide relative to a control experiment without a peptide.
(§2) Bacterial lysis assay. Bacterial lysis assays were conducted in a manner similar to that described previously (Lehrer, R. I., M. E. Selsted, D. Szklarek, and F. J. 1983. Infect. Immun. 42: 10-4, 1983; Miller, M. A., R. F. Garry, J. M. Jaynes, and R. C. Montelaro, AIDS Res Hum Retroviruses 7: 511-519, 1991). Bacterial suspensions were cultured in Luria-Bertani Broth to mid-log growth phase and washed by two cycles of centrifugation and suspension in 10 mM phosphate buffer. The Abs600 of the suspension was adjusted with 10 mM phosphate buffer such that, upon dilution, 5-10x10^5 cfu/mL would be treated in the assay. Bacteria were incubated for 1h with two-fold dilutions of peptides (100µM to 100 nM) in 96-well plates using 10 mM phosphate buffer, pH 7.2, as a diluent. Ten-fold dilutions of bacteria were performed to 1:1000; a 100µl aliquot from each condition was spread on the surface of tryptic soy agar plates (Difco, Detroit, Mich.) which were incubated overnight. Colonies of surviving bacteria (cfu, colony-forming units) were counted and compared to untreated controls to determine the amount of peptide-induced killing under each condition. Log killing is defined as the log of the ratio of cfu present before and after treatment with peptide. The minimal bactericidal concentration, MBC, is the peptide concentration at which 99.9% (three log) killing is achieved (Pearson et al., Antimicrob. Agents Chemother. 18: 699-708, 1980).
(§3) Results. Representative gram positive (S. aureus) and gram negative (P. aeruginosa) clinical isolates were used as the index bacteria to survey the peptides described in this invention.
(§4) A limitation of many host-derived antimicrobial peptides is their decreased activity at physiologic (150 mM) NaCl concentration. See Friedrich et al., Antimicrobial Agents and Chemotherapy 43:1542-1548. The activity of eLLPs and LBUs of this invention were compared to an expanded list of clinical bacterial isolates. These are summarized in Table 2 by comparing their MBCs in phosphate buffer alone (low salt) and phosphate buffer containing 150 mM NaCl (physiologic conditions). Inspection of this table would lead one skilled in the art to conclude that the activity of eLLPs and LBUs compare favorably to the host derived antimicrobial peptides as it relates to the spectrum and potency of antimicrobial activity.

Psuedomonas aeruginosa = assay: as above; assay type: cell-based, Pseudomonas aeruginosa
Description: as §1, §2, §3, §4

[1] = tested on: Methicillin Resistant S. aureus; assay type: cell-based
Description: as §1, §2, §4

| Compound | MBC (Staphylococcus aureus; 0 mM NaCl) | MBC (Staphylococcus aureus; 150 mM NaCl) | MBC (Psuedomonas aeruginosa; 0 mM NaCl) [µM] | MBC (Psuedomonas aeruginosa; 150 mM NaCl) [µM] | MBC ([1]; 0 mM NaCl) | MBC ([1]; 150 mM NaCl) |
| --- | --- | --- | --- | --- | --- | --- |
| CC(C)[C@H](NC(=O)[C@H](Cc1c[nH]c2ccccc12)NC(=O)[C@H](CCCNC(=N)N)NC(=O)[C@H](CCCNC(=N)N)NC(=O)[C@@H](NC(=O)[C@@H](NC(=O)[C@H](CCCNC(=N)N)NC(=O)[C@@H](NC(=O)[C@@H](NC(=O)[C@@H](N)CCCNC(=N)N)C(C)C)C(C)C)C(C)C)C(C)C)C(=O)N[C@@H](CCCNC(=N)N)C(=O)N[C@@H](CCCNC(=N)N)C(=O)O [WLBU-1, RVVRV VRRWV RR] (H-RVVRVVRRWVRR-OH) | 30.000 nM (≈ 0.0491 µg/mL) | 10.000 nM (≈ 0.0164 µg/mL) | 0.4 (≈ 0.655 µg/mL) | 2.5 (≈ 4.09 µg/mL) | 50,000 nanomolar | 50,000 nanomolar |
| RVVRVVRRVVRRVRRVVRRVVRVVRRVVRRVRRVVRRVVRVVRRVVRR [LBU-4, RVVRVVRRVVRRVRRVVRRVVRVVRRVVRRVRRVVRRVVRVVRRVVRR] | 800 nM | 800 nM | 0.8 | 0.4 | – | – |
| RVVRVVRRWVRRVRRVWRRVVRVVRRWVRRVRRVWRRVVRVVRRWRVV [WLBU-4, RVVRVVRRWVRRVRRVWRRVVRVVRRRVVRVVRRWRVV RWVRR VRRVW] | 3,000 nanomolar | 600 nM | 1.5 | 0.4 | 1500 nM | 200 nM |
| CC(C)[C@H](N)C(=O)N[C@@H](CCCNC(=N)N)C(=O)N[C@@H](CCCNC(=N)N)C(=O)N[C@H](C(=O)N[C@H](C(=O)N[C@@H](CCCNC(=N)N)C(=O)N[C@@H](CCCNC(=N)N)C(=O)N[C@H](C(=O)N[C@H](C(=O)N[C@@H](CCCNC(=N)N)C(=O)N[C@H](C(=O)N[C@H](C(=O)N[C@@H](CCCNC(=N)N)C(=O)N[C@@H](CCCNC(=N)N)C(=O)N[C@H](C(=O)N[C@H](C(=O)N[C@@H](CCCNC(=N)N)C(=O)N[C@@H](CCCNC(=N)N)C(=O)N[C@H](C(=O)N[C@@H](CCCNC(=N)N)C(=O)N[C@@H](CCCNC(=N)N)C(=O)N[C@H](C(=O)N[C@H](C(=O)N[C@@H](CCCNC(=N)N)C(=O)N[C@@H](CCCNC(=N)N)C(=O)N[C@H](C(=O)N[C@H](C(=O)N[C@@H](CCCNC(=N)N)C(=O)N[C@H](C(=O)N[C@H](C(=O)N[C@@H](CCCNC(=N)N)C(=O)N[C@@H](CCCNC(=N)N)C(=O)N[C@H](C(=O)N[C@H](C(=O)N[C@@H](CCCNC(=N)N)C(=O)N[C@@H](CCCNC(=N)N)C(=O)O)C(C)C)C(C)C)C(C)C)C(C)C)C(C)C)C(C)C)C(C)C)C(C)C)C(C)C)C(C)C)C(C)C)C(C)C)C(C)C)C(C)C)C(C)C)C(C)C)C(C)C [LBU-3, VRRVVRRVVRVVRRVVRRVRRVVRRVVRVV RRVVRR] (H-VRRVVRRVVRVVRRVVRRVRRVVRRVVRVVRRVVRR-OH) | 1500 nM (≈ 6.92 µg/mL) | 1500 nM (≈ 6.92 µg/mL) | 1.5 (≈ 6.92 µg/mL) | 0.8 (≈ 3.69 µg/mL) | – | – |
| CC(C)[C@H](N)C(=O)N[C@@H](CCCNC(=N)N)C(=O)N[C@@H](CCCNC(=N)N)C(=O)N[C@H](C(=O)N[C@@H](Cc1c[nH]c2ccccc12)C(=O)N[C@@H](CCCNC(=N)N)C(=O)N[C@@H](CCCNC(=N)N)C(=O)N[C@H](C(=O)N[C@H](C(=O)N[C@@H](CCCNC(=N)N)C(=O)N[C@H](C(=O)N[C@H](C(=O)N[C@@H](CCCNC(=N)N)C(=O)N[C@@H](CCCNC(=N)N)C(=O)N[C@@H](Cc1c[nH]c2ccccc12)C(=O)N[C@H](C(=O)N[C@@H](CCCNC(=N)N)C(=O)N[C@@H](CCCNC(=N)N)C(=O)N[C@H](C(=O)N[C@@H](CCCNC(=N)N)C(=O)N[C@@H](CCCNC(=N)N)C(=O)N[C@H](C(=O)N[C@@H](Cc1c[nH]c2ccccc12)C(=O)N[C@@H](CCCNC(=N)N)C(=O)N[C@@H](CCCNC(=N)N)C(=O)N[C@H](C(=O)N[C@H](C(=O)N[C@@H](CCCNC(=N)N)C(=O)N[C@H](C(=O)N[C@H](C(=O)N[C@@H](CCCNC(=N)N)C(=O)N[C@@H](CCCNC(=N)N)C(=O)N[C@@H](Cc1c[nH]c2ccccc12)C(=O)N[C@H](C(=O)N[C@@H](CCCNC(=N)N)C(=O)N[C@@H](CCCNC(=N)N)C(=O)O)C(C)C)C(C)C)C(C)C)C(C)C)C(C)C)C(C)C)C(C)C)C(C)C)C(C)C)C(C)C)C(C)C)C(C)C)C(C)C [WLBU-3, VRRVWRRVVRVVRRWVRRVRRVWRRVVRVVRRWVRR] (H-VRRVWRRVVRVVRRWVRRVRRVWRRVVRVVRRWVRR-OH) | 3,000 nanomolar | 600 nM (≈ 2.98 µg/mL) | 1.5 (≈ 7.44 µg/mL) | 0.8 (≈ 3.97 µg/mL) | 400 nM (≈ 1.98 µg/mL) | 100 nM (≈ 0.496 µg/mL) |
| CC(C)[C@H](NC(=O)[C@H](CCCNC(=N)N)NC(=O)[C@H](CCCNC(=N)N)NC(=O)[C@@H](NC(=O)[C@@H](NC(=O)[C@H](CCCNC(=N)N)NC(=O)[C@@H](N)CCCNC(=N)N)C(C)C)C(C)C)C(=O)N[C@@H](CCCNC(=N)N)C(=O)N[C@@H](CCCNC(=N)N)C(=O)N[C@H](C(=O)N[C@H](C(=O)N[C@@H](CCCNC(=N)N)C(=O)N[C@@H](CCCNC(=N)N)C(=O)N[C@H](C(=O)N[C@H](C(=O)N[C@@H](CCCNC(=N)N)C(=O)N[C@H](C(=O)N[C@H](C(=O)N[C@@H](CCCNC(=N)N)C(=O)N[C@@H](CCCNC(=N)N)C(=O)N[C@H](C(=O)N[C@H](C(=O)N[C@@H](CCCNC(=N)N)C(=O)N[C@@H](CCCNC(=N)N)C(=O)O)C(C)C)C(C)C)C(C)C)C(C)C)C(C)C)C(C)C)C(C)C)C(C)C [LBU-2, RRVVRRVRRV VRRVV RVVRR VVRR] (H-RRVVRRVRRVVRRVVRVVRRVVRR-OH) | 1500 nM (≈ 4.71 µg/mL) | >100,000 nanomolar | 1.5 (≈ 4.71 µg/mL) | 0.8 (≈ 2.51 µg/mL) | – | – |
| RRVVRRVRRVVRRVVRVVRRVVRRVRRVVRRVVRVVRRVVRR [LBU-3.5, RRVVRRVRRVVRRVVRVVRRVVRRVRRVVRRVVRVVRRVVRR] | 1000 nM | 600 nM | 0.4 | 0.4 | 1500 nM | 200 nM |
| CC(C)[C@H](NC(=O)[C@H](Cc1c[nH]c2ccccc12)NC(=O)[C@H](CCCNC(=N)N)NC(=O)[C@H](CCCNC(=N)N)NC(=O)[C@@H](NC(=O)[C@@H](NC(=O)[C@H](CCCNC(=N)N)NC(=O)[C@@H](NC(=O)[C@@H](NC(=O)[C@H](CCCNC(=N)N)NC(=O)[C@H](CCCNC(=N)N)NC(=O)[C@H](Cc1c[nH]c2ccccc12)NC(=O)[C@@H](NC(=O)[C@H](CCCNC(=N)N)NC(=O)[C@H](CCCNC(=N)N)NC(=O)[C@@H](NC(=O)[C@H](CCCNC(=N)N)NC(=O)[C@H](CCCNC(=N)N)NC(=O)[C@@H](NC(=O)[C@H](Cc1c[nH]c2ccccc12)NC(=O)[C@H](CCCNC(=N)N)NC(=O)[C@@H](N)CCCNC(=N)N)C(C)C)C(C)C)C(C)C)C(C)C)C(C)C)C(C)C)C(C)C)C(=O)N[C@@H](CCCNC(=N)N)C(=O)N[C@@H](CCCNC(=N)N)C(=O)O [WLBU-2, RRWVRRVRRV WRRVV RVVRR WVRR] (H-RRWVRRVRRVWRRVVRVVRRWVRR-OH) | 1000 nM (≈ 3.4 µg/mL) | 600 nM (≈ 2.04 µg/mL) | 0.2 (≈ 0.68 µg/mL) | 0.1 (≈ 0.34 µg/mL) | 200 nM (≈ 0.68 µg/mL) | 100 nM (≈ 0.34 µg/mL) |
